This is an account of results in BindingDB's records for patent US12421225 (Kaken Pharmaceutical Co., 2025).

Sequence of Sodium channel protein type 9 subunit alpha (Q15858 whole entry): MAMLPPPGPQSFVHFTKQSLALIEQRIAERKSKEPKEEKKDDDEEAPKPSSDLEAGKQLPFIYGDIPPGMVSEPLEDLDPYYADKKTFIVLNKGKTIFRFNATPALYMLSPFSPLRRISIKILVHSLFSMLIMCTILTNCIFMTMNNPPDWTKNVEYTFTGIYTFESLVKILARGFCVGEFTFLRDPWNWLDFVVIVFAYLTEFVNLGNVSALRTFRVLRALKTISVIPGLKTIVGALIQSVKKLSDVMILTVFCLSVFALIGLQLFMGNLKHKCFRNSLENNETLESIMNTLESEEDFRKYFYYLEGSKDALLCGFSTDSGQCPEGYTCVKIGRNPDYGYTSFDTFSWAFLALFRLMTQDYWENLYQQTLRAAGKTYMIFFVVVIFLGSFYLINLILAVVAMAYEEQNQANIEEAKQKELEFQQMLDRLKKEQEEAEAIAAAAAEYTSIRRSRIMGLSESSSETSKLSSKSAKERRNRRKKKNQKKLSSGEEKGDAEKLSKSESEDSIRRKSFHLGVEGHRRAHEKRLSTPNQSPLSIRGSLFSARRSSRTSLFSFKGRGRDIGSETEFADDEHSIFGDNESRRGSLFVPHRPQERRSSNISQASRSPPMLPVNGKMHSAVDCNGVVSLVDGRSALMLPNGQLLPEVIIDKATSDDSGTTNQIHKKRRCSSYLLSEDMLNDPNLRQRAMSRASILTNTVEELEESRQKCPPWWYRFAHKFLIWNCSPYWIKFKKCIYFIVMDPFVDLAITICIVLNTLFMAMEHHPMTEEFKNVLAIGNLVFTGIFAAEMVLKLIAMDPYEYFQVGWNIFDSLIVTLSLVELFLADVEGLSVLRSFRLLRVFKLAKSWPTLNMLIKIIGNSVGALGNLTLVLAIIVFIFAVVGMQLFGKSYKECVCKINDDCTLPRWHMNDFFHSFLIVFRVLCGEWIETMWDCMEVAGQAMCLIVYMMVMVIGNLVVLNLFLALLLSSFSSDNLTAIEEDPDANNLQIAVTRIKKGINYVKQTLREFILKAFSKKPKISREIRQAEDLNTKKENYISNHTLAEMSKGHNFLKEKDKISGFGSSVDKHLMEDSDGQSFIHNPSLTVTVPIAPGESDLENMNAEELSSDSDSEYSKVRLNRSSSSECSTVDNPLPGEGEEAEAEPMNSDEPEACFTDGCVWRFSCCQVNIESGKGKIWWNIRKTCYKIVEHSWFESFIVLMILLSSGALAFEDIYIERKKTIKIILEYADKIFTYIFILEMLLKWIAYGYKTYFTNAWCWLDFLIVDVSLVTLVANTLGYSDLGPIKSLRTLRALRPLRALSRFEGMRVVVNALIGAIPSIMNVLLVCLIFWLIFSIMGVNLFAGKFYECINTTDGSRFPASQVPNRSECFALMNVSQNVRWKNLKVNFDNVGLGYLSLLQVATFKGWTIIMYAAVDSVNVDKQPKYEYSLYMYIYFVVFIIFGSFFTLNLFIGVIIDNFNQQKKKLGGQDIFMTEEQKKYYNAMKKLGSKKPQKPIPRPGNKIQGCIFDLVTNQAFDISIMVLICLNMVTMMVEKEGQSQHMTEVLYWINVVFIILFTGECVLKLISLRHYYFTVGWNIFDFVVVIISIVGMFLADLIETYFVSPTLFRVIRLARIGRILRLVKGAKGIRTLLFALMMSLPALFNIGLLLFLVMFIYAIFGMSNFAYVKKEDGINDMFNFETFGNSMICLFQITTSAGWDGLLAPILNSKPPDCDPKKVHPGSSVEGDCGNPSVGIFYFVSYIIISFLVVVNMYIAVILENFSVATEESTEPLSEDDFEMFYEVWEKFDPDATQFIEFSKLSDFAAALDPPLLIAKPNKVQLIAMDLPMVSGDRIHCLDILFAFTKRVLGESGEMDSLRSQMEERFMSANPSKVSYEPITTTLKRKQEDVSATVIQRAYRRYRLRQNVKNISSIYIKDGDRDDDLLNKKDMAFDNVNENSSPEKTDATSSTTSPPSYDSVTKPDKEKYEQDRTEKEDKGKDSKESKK

The test has as its target Sodium channel protein type 9 subunit alpha (Homo sapiens, UniProt Q15858). The experiment in a line: Human Nav1.7 Inhibitory Activity Evaluation. The protocol: The amount of current through human Nav1.7 was recorded using a fully automatic patch clamp device QPatch16X (Sophion Biosciences) at room temperature. As the extracellular solution, the solution of 145 mM NaCl, 4 mM KCl, 1 mM MgCl2, 2 mM CaCl2, 10 mM Glucose, 10 mM 4-(2-hydroxyethyl)-1-piperazine ethanesulfonic acid (HEPES) at pH 7.4 was used. As the intracellular solution, the solution of 135 mM CsF, ⅕ mM glycol ether diaminetetraacetic acid (EGTA)/CsOH, 10 mM HEPES, 10 mM NaCl at pH 7.3 was used. The test compounds were dissolved in dimethyl sulfoxide (DMSO) and diluted with the extracellular solution to attain the DMSO concentration of 0.1% at the time of assay. The current response was obtained at a sampling frequency of 25 kHz, and noise was removed with a 3 kHz low-pass filter. The holding potential was −100 mV. Correction of the leakage current was carried out by applying a step pulse of −120 mV before the test pulse. In order to investigate inhibitory action of the test compound, the following test pulse was given: Namely, after depolarizing pulse of −10 mV was applied for 50 milliseconds, it was fixed at −120 mV for 500 milliseconds; a potential at which about 30-40% of the channel was inactivated was maintained for 15 seconds, then fixed again at −120 mV for 100 milliseconds, and finally a −10 mV depolarization pulse was given for 50 milliseconds. Test pulses were given before and after the test compound addition.
Usually IC50 stands for the concentration needed to halve the response being measured. As for `N#Cc1ccc2c(c1)C[C@@H](NC(=O)c1cc3n(n1)CCC(CC1CC1)O3)CO2` (single isomer, unassigned) [US12421225, Example 97 (isomer B)], the 50% inhibitory concentration (IC50) was less than 1000 nM.

`CC[C@@H]1CCn2nc(C(=O)N[C@H]3COc4ccc(C#N)cc4C3)cc2O1` (single isomer, unassigned; isomer B) [US12421225, Example 92 (isomer B)]: the IC50 was less than 1000 nM.

In turn, `O=C(N[C@H]1COc2ccc(-c3ccccn3)cc2C1)c1cc2n(n1)CC[C@@H](COCC1CC1)O2` (single isomer, unassigned; isomer B) [US12421225, Example 111 (isomer B)] yielded an IC50 of less than 1000 nM.

`O=C(N[C@H]1COc2ccc(CC(F)F)cc2C1)c1cc2n(n1)CC[C@@H](COCC(F)(F)F)O2` (single isomer, unassigned; isomer B) [US12421225, Example 127 (isomer B)] registered an IC50 of less than 1000 nM.

Regarding `N#Cc1ccc2c(c1)C[C@@H](NC(=O)c1cc3n(n1)C[C@@H](CCCOC(F)(F)F)O3)CO2` (single isomer, unassigned; isomer B) [US12421225, Example 247 (isomer B)], the IC50 is less than 1000 nM.

For `N#Cc1ccc2c(c1)C[C@@H](NC(=O)c1cc3n(n1)CC[C@@H](COCC1(F)CC1)O3)CO2` (single isomer, unassigned; isomer B) [US12421225, Example 552 (isomer B)], the IC50 is not above 10000 nM.

Molecule `O=C(N[C@H]1COc2ccc(Br)cc2C1)c1cc2n(n1)CC(C(F)(F)F)O2` (some centres not stated) [US12421225, Example 445] gave an IC50 of less than 1000 nM.
